From patent US20260133203A1, “DETECTION OF FUMARATE-DERIVED MODIFICATION IN A TEST SAMPLE” (UNIVERSITY OF SOUTH CAROLINA, priority 2017, published 2026)
Structures can show the parent of a compound that is named as a salt.

Tests used:
[1] = system: N1E-115 neuroblastoma cells differentiated to a neuronal phenotype; assay: Western blot detection of succinated proteins with anti-2SC antibody after KOH hydrolysis of the ester; type: cell-based, mouse; settings: DMF for 24 hours, hydrolysis of the ester in the presence of KOH
Experimental: N1E-115 cells (subclone N1E-115-1 neuroblastoma cells) were obtained from Sigma (08062511, St. Louis, MO). The cells were grown and expanded in non-differentiation medium (NDM): 90% DMEM (Gibco™, Grand Island, NY) with 25 mM glucose, no pyruvate, 25 mM HEPES, 4 mM glutamine and 10% fetal bovine serum (FBS, Atlanta Biologicals, Atlanta, GA). At 80% confluence, the cells were differentiated into neurons in the presence of 2% FBS and 1.25% dimethyl sulfoxide in DMEM for 5 days. In addition to the assessment of the neuronal phenotype by light microscopy, the detection of synaptophysin protein levels was used to confirm successful differentiation. During the final 6 or 24 hours of differentiation, the cells were treated with 10-100 µM DMF and harvested as described above for primary neurons, with the addition of phosphatase inhibitors to the DPBS washes and the RIPA buffer used for scraping to prevent dephosphorylation of CRMP-2. […] To ensure that the succinated proteins detected were solely of neuronal origin, N1E-115 neuroblastoma cells were differentiated to a neuronal phenotype (confirmed by increased synaptophysin content) and treated with DMF for 24 hours. […]

N1E-115 neurons = assay: LC-MS/MS identification of succinated proteins in N1E-115 neurons; type: cell-based, mouse; settings: DMF-treated N1E-115 neurons
Experimental: N1E-115 cells (subclone N1E-115-1 neuroblastoma cells) were obtained from Sigma (08062511, St. Louis, MO). The cells were grown and expanded in non-differentiation medium (NDM): 90% DMEM (GibcoTM, Grand Island, NY) with 25 mM glucose, no pyruvate, 25 mM HEPES, 4 mM glutamine and 10% fetal bovine serum (FBS, Atlanta Biologicals, Atlanta, GA). At 80% confluence, the cells were differentiated into neurons in the presence of 2% FBS and 1.25% dimethyl sulfoxide in DMEM for 5 days. In addition to the assessment of the neuronal phenotype by light microscopy, the detection of synaptophysin protein levels was used to confirm successful differentiation. […] After gel extraction, the peptides were re-suspended in 1% acetic acid and analyzed on a DionexTM […] system (Thermo ScientificTM, Rockford, IL) coupled to an Orbitrap Velos ProTM mass spectrometer (Thermo ScientificTM, Rockford, IL). […] The data-dependent acquisition (DDA) data were analyzed using Proteome DiscovererTM 1.4 software with SEQUEST search engine against the uniprot_ref_mouse database (2014-10-03 version, 52,474 proteins) or uniprot_ref_rat database (2011-5-11 version, 39765 proteins) with Xcorr>1 validation (+2) and an allowance for 2 missed cleavages. […]

## COC(=O)/C=C/C(=O)OC [DMF, dimethyl fumarate]
[1]
  detection of succinated proteins using the anti-2SC antibody: detection of a large number of succinated proteins
N1E-115 neurons
  number of protein subunits modified by either DMF or MMF: 15
